Reference: patent US20250032524A1, “BROAD SPECTRUM AMINOGLYCOSIDES AND USES THEREOF” (REVAGENIX, INC., priority 2022, published 2025)
Like-named read-outs stand apart in the source and are kept apart here.

Key:
Assay type in all cases: cell-based
P. aeruginosa [1] = assay: MIC broth microdilution (CLSI); settings: Pseudomonas aeruginosa
Protocol: (§1) Minimum inhibitory concentrations for representative example compounds herein were determined by a broth microdilution method in accordance with the Clinical and Laboratory Standards Institute (CLSI) guidelines. In brief, organism suspensions were adjusted to a 0.5 McFarland standard to yield a final inoculum between 3×10^5 and 7×10^5 colony-forming units (CFU)/mL. The inoculum was prepared by suspension of a colony from an agar plate that was prepared the previous day. Compound dilutions and inoculum were prepared in sterile, cation adjusted Mueller-Hinton Broth (Beckton Dickinson).
(§2) Bacteria were suspended in sterile saline and added to each assay plate to obtain a final concentration of 5×10^5 CFU/mL. An inoculum volume of 100 μL was added to wells containing 100 μL of broth with 2-fold serial dilutions of the test compound. All inoculated microdilution trays were incubated in ambient air at 35° C. for 18-24 hours. Following incubation, the lowest concentration of the compound that prevented visible growth (OD 600 nm<0.05) is recorded was the MIC. […] Performance of the assay was monitored by the use of laboratory quality-control strains and a standard compound with a defined MIC spectrum (neomycin), in accordance with CLSI guidelines.

A. baumannii = assay: MIC broth microdilution (CLSI); settings: Acinetobacter baumannii
Protocol: as §1, §2

S. aureus = assay: MIC broth microdilution (CLSI); settings: for MIC: Staphylococcus aureus
Protocol: as §1, §2

K. aerogenes = assay: MIC broth microdilution (CLSI); settings: Klebsiella aerogenes; strain AEAE1042, MDR Clinical isolate (CDC CRE panel), CDC AR Bank 0161
Protocol: as §1, §2

P. mirabilis = assay: MIC broth microdilution (CLSI); settings: Proteus mirabilis; strain APMI1048, MDR Clinical isolate (CDC CRE panel), CDC AR Bank 0159
Protocol: as §1, §2

E. cloacae = assay: MIC broth microdilution (CLSI); settings: Enterobacter cloacae; strain AECL1089, MDR Clinical isolate (CDC CRE panel), CDC AR Bank 0154
Protocol: as §1, §2

C. freundii = assay: MIC broth microdilution (CLSI); settings: Citrobacter freundii, read-out: Activity (MIC)
Protocol: as §1, §2

S. enterica = assay: MIC broth microdilution (CLSI); settings: Salmonella enterica, read-out: Activity (MIC)
Protocol: as §1, §2

[2] = tested on: clinical isolates of multi-drug resistant bacterial pathogens including A. baumannii, MRSA, P. aeruginosa, and CRE; assay: MIC secondary panel, overall statement; settings: read-out: minimum inhibitory concentration (MIC) values
Protocol: as §1, §2
Several compounds of the disclosure (Compounds 1, 2, 3, and 6) were further evaluated against a secondary panel of clinical isolates of multi-drug resistant bacterial pathogens including A. baumannii, methicillin-resistant Staphylococcus aureus (MRSA), P. aeruginosa, and carbapenem-resistant Enterobacteriaceae (CRE).

[3] = tested on: all sets of organisms tested (SENTRY clinical isolates); assay: Antibacterial surveillance, overall statement; settings: all sets of organisms tested (Table 3); read-out: MIC50,90 values
Protocol: as §1, §2
Several compounds of the disclosure (Compound 1, 2, and 3) were further evaluated against several hundred bacterial isolates (isolated in the United States and Europe, 1:1) selected from the SENTRY Antimicrobial Surveillance Program (JMI Laboratories, North Liberty, Iowa). The set of clinical isolates included 300 randomly selected Enterobacterales, 103 randomly selected P. aeruginosa, 100 randomly selected A. baumannii-calcoaceticus, 20 randomly selected Methicillin-sensitive S. aureus (MSSA), and 30 randomly selected Methicillin-resistant S. aureus (MRSA). In addition, 101 Enterobacterales and 50 P. aeruginosa isolates with genetically defined mechanisms of aminoglycoside resistance were included. […]

[4] = tested on: AG-resistant P. aeruginosa; assay: Antibacterial surveillance of clinical isolates (MIC50/90); settings: Pseudomonas aeruginosa, 50 isolates with defined aminoglycoside resistance
Protocol: as §1, §2
(§3) Several compounds of the disclosure (Compound 1, 2, and 3) were further evaluated against several hundred bacterial isolates (isolated in the United States and Europe, 1:1) selected from the SENTRY Antimicrobial Surveillance Program (JMI Laboratories, North Liberty, Iowa). The set of clinical isolates included 300 randomly selected Enterobacterales, 103 randomly selected P. aeruginosa, 100 randomly selected A. baumannii-calcoaceticus, 20 randomly selected Methicillin-sensitive S. aureus (MSSA), and 30 randomly selected Methicillin-resistant S. aureus (MRSA). In addition, 101 Enterobacterales and 50 P. aeruginosa isolates with genetically defined mechanisms of aminoglycoside resistance were included. The MIC values at which ≥50% (MIC50) and ≥90% (MIC90) of isolates within a given set are inhibited were determined for each compound against each set of organisms.

P. aeruginosa [5] = assay: as above; settings: Pseudomonas aeruginosa, 103 isolates
Protocol: as §1, §2, §3

[6] = tested on: A. baumannii-calcoaceticus; assay: as above; settings: 100 isolates
Protocol: as §1, §2, §3

[7] = tested on: Methicillin-sensitive S. aureus (MSSA); assay: as above; settings: Staphylococcus aureus, MSSA, 20 isolates
Protocol: as §1, §2, §3

[8] = tested on: Methicillin-resistant S. aureus (MRSA); assay: as above; settings: Staphylococcus aureus, MRSA, 30 isolates
Protocol: as §1, §2, §3

[9] = tested on: AG-resistant Enterobacterales; assay: as above
Protocol: as §1, §2, §3

Enterobacterales = assay: as above
Protocol: as §1, §2, §3

Which results are given for C[C@H](N)[C@@H]1CC[C@@H](N)[C@@H](O[C@@H]2[C@@H](N)[C@H](O)[C@@H](NC(=O)[C@@H](O)[C@H](F)CN)[C@H](O)[C@H]2O[C@@H]2O[C@H](CO)[C@@H](O[C@H]3O[C@@H](CN)[C@@H](O)[C@H](O)[C@H]3N)[C@H]2O)O1 [Compound 3, (2R,3R)-4-amino-N-((1R,2S,3S,4R,5R,6S)-3-amino-4-(((2R,3R,6S)-3-amino-6-((S)-1-aminoethyl)tetrahydro-2H-pyran-2-yl)oxy)-5-(((2S,3R,4S,5R)-4-(((2R,3R,4R,5S,6S)-3-amino-6-(aminomethyl)-4,5-dihydroxytetrahydro-2H-pyran-2-yl)oxy)-3-hydroxy-5-(hydroxymethyl)tetrahydrofuran-2-yl)oxy)-2,6-dihydroxycyclohexyl)-3-fluoro-2-hydroxybutanamide]?
MIC (P. aeruginosa [1]; read-out: Activity (MIC), strain NPAE0006, Efflux KO, Aph(3')-IIb): < 16 µg/mL; MIC (P. aeruginosa [1]; read-out: Activity (MIC), strain NPAE0010, MexXY over-expressed, Aph(3')-IIb): < 16 µg/mL; MIC (P. aeruginosa [1]; read-out: Activity (MIC), strain NPAE1288, MDR Clinical isolate): < 16 µg/mL; MIC (P. aeruginosa [1]; read-out: Activity (MIC), strain NPAE1293, MDR Clinical isolate): < 16 µg/mL; MIC (P. aeruginosa [1]; read-out: Activity (MIC), strain NPAE1299, MDR Clinical isolate): < 16 µg/mL; MIC (P. aeruginosa [1]; read-out: Activity (MIC), strain NPAE1302, MDR Clinical isolate): < 16 µg/mL; MIC (P. aeruginosa [1]; read-out: Activity (MIC), strain NPAE1303, MDR Clinical isolate): < 16 µg/mL; MIC (P. aeruginosa [1]; read-out: Activity (MIC), strain NPAE1308, MDR Clinical isolate): < 16 µg/mL; MIC (P. aeruginosa [1]; read-out: Activity (MIC), strain NPAE1310, MDR Clinical isolate): < 16 µg/mL; MIC (P. aeruginosa [1]; read-out: Activity (MIC), strain NPAE1313, MDR Clinical isolate): > 16 µg/mL; MIC (P. aeruginosa [1]; read-out: Activity (MIC), strain NPAE1316, MDR Clinical isolate): < 16 µg/mL; MIC (P. aeruginosa [1]; read-out: Activity (MIC), strain NPAE1323, MDR Clinical isolate): < 16 µg/mL; MIC (P. aeruginosa [1]; strain NPAE0001, WT Aph(3')-IIb, QC, read-out: Activity (MIC)): < 16 µg/mL; MIC (P. aeruginosa [1]; strain NPAE0002, WT Aph(3')-IIb, read-out: Activity (MIC)): < 16 µg/mL; MIC (P. aeruginosa [1]; strain NPAE0359, aph(3')-IIb KO (tetR), read-out: Activity (MIC)): < 16 µg/mL; MIC (A. baumannii; read-out: Activity (MIC), strain NABA0007, ΔadeJK efflux): < 16 µg/mL; MIC (A. baumannii; read-out: Activity (MIC), strain NABA1427, MDR Clinical isolate): < 16 µg/mL; MIC (A. baumannii; read-out: Activity (MIC), strain NABA1433, MDR Clinical isolate): < 16 µg/mL; MIC (A. baumannii; read-out: Activity (MIC), strain NABA1434, MDR Clinical isolate): < 16 µg/mL; MIC (A. baumannii; read-out: Activity (MIC), strain NABA1436, MDR Clinical isolate): < 16 µg/mL; MIC (A. baumannii; read-out: Activity (MIC), strain NABA1437, MDR Clinical isolate): < 16 µg/mL; MIC (A. baumannii; read-out: Activity (MIC), strain NABA1438, MDR Clinical isolate): < 16 µg/mL; MIC (A. baumannii; read-out: Activity (MIC), strain NABA1439, MDR Clinical isolate): < 16 µg/mL; MIC (A. baumannii; read-out: Activity (MIC), strain NABA1448, MDR Clinical isolate): < 16 µg/mL; MIC (A. baumannii; read-out: Activity (MIC), strain NABA1449, MDR Clinical isolate): < 16 µg/mL; MIC (A. baumannii; read-out: Activity (MIC), strain NABA1450, MDR Clinical isolate): < 16 µg/mL; MIC (A. baumannii; strain NABA0006, WT parent, read-out: Activity (MIC)): < 16 µg/mL; MIC (A. baumannii; strain NABA0020, AME negative strain, read-out: Activity (MIC)): < 16 µg/mL; MIC (S. aureus; ATCC29213, strain NSAU001, wild-type, QC, ATCC 29213): < 16 µg/mL; MIC (S. aureus; strain NSAU1004, MDR Clinical isolate): < 16 µg/mL; Activity (MIC) (S. aureus; strain NSAU1015, MDR Clinical isolate): + (MIC threshold for positive activity (+) is ≤16 μg/mL); Activity (MIC) (S. aureus; strain NSAU1023, MDR Clinical isolate): + (MIC threshold for positive activity (+) is ≤16 μg/mL); Activity (MIC) (S. aureus; strain NSAU1063, MDR Clinical isolate): + (MIC threshold for positive activity (+) is ≤16 μg/mL); MIC (K. aerogenes): < 16 µg/mL; MIC (P. mirabilis): < 16 µg/mL; MIC (E. cloacae): < 16 µg/mL; MIC (C. freundii): < 16 µg/mL; MIC (S. enterica): < 16 µg/mL; MIC [2]: ≤ 16 µg/mL; MIC50 [3]: ≤ 16 µg/mL; MIC50 ([4]; read-out: MIC50): < 16 µg/mL; MIC90 ([4]; read-out: MIC90): < 16 µg/mL; MIC50 (P. aeruginosa [5]; read-out: MIC50): < 16 µg/mL; MIC90 (P. aeruginosa [5]; read-out: MIC90): < 16 µg/mL; MIC50 ([6]; read-out: MIC50): < 16 µg/mL; MIC90 ([6]; read-out: MIC90): < 16 µg/mL; MIC50 ([7]; read-out: MIC50): < 16 µg/mL; MIC90 ([7]; read-out: MIC90): < 16 µg/mL; MIC50 ([8]; read-out: MIC50): < 16 µg/mL; MIC90 ([8]; read-out: MIC90): < 16 µg/mL; MIC50 [9]: < 16 µg/mL; MIC90 [9]: < 16 µg/mL; MIC50 (Enterobacterales): < 16 µg/mL; MIC90 (Enterobacterales): < 16 µg/mL
